System: NK cells, CD8 T cells, CD4 T cells
Assay: In vivo PD study in non-human primates: lymphocyte cell numbers and proliferation
Design: species or system cynomolgus monkeys
Procedure: In the study, cynomolgus monkeys, one female and one male, were administered 500 μg/kg of Conjugate 2 intravenously. A series of blood samples were taken from each animal before treatment (day-6 and -1) and at multiple intervals following single dose treatment for assessment by flow cytometry of lymphocyte cell numbers (NK cells, CD8 T-cells, etc.) and activation.
NK cell counts were determined to assess the ability of exemplary Conjugate 2 to induce sustained NK cell proliferation in non-human primates; results are shown in FIGS. 16A and 16B. NK cells and their proliferation in blood from cynomolgus monkey were identified by flow cytometry. Acquisition and analysis of NK cells (CD45+ CD3− CD16+) and their proliferation status (CD45+CD3−CD16+ Ki67+) were conducted using BD FACS DIVA software. Absolute values for NK cells and proliferating NK cells were used to calculate % Ki67 positivity within the NK population. Pre and post-treatment values were plotted using Prism.
CD8 T cell counts were also determined as illustrated in FIG. 17 for each animal from pre-dose to 14 days post-administration. Specifically, CD8 T cells were defined as CD45+CD3+CD4−CD8+. Blood from the monkeys was also subject to immunophenotyping as previously described. In monkey, CD8 T cells increased in a sustained manner, an effect lasting for at least 10 days. This plot further exemplifies the ability of an exemplary long acting IL-15 receptor agonist, Conjugate 2, to induce proliferation and sustained increases in numbers of CD8 T-cells post-administration.
In monkey, CD8 TEM cells were defined as CD45+CD3+CD4−CD8+CD45Ra−CD197− and CD8 Tcm were defined as CD45+CD3+CD4−CD8+CD45Ra−CD197+. Immunophenotyping was conducted by flow cytometry with sample acquisition on DIVA software and data analysis on Flowjo software. Graphs were plotted using Prism. […] The figures indicate that both CD8 effector and central memory T cell populations proliferate in response to exemplary Conjugate 2.
In this study, cynomolgus monkeys (cyno), one female and one male, were each intravenously administered a single dose of Conjugate 1 (0.1 mg/kg). A series of blood samples were taken from each animal over a 14-day time course and subjected to flow cytometry analysis of various lymphocytes (CD8 T cells, Ki-67 percent positivity within total CD8, CD8 central memory T cells (TCM) and CD8 effector memory T cells (Tem), NK cells and Ki-67 percent positivity of NK cells).
Cynomolgus monkeys (n=3-4 males), were administered a single intravenous injection of Conjugate 1 at 0.003, 0.01, 0.1 mg/kg or a vehicle control. Blood samples were collected at the indicated time points pre and post dose (−5, −2, 1, 2, 3, 4, 5, 6, 7, 10, 14, 17 days) and subjected to flow cytometric analysis to examine pharmacodynamic effects within lymphocyte populations. Proliferation (% Ki-67) and JAK/STAT signaling (% pSTAT5) for NK cells, CD8 T cells, and CD4 T cells were examined, with the results shown in FIGS. 45A-C and FIGS. 46A-C, respectively.
In cynomolgus monkey, CD8 naïve and memory subpopulations were defined by CD45Ra, CD197 and CD95. […] Within the CD8 Tem, […] and Tscm populations, Conjugate 1 induced robust % Ki-67 expression in a dose dependent manner with detectable increases in proliferation marker positivity starting as early as day 2, reaching a maximum at day 5 and returning to baseline between days 10-14. The Ki-67 expression and kinetics within the CD8 populations support the sustained increase in CD8 T cell numbers shown in Example 27 and FIGS. 47A-D.

[1] = cynomolgus monkey, each dose level, vs vehicle

mono-mPEG-SBA40K-IL-15 [Conjugate 1]
time NK cell numbers were sustained (NHP, 0.1 and 0.01 mg/kg): up to 14 days | CD4 T cell numbers, % Ki-67 and % pSTAT5 (NHP, highest dose level 0.1 mg/kg): induced a small increase in CD4 T cell numbers, % Ki-67 and % pSTAT5 | day of maximal total CD8 T cell numbers (NHP, single i.v.): ~5 days | dose at which % Ki-67 positivity in CD8 T cells is detectable (NHP, single i.v.): 10 µg/kg | dose at which effect on total CD8 cell numbers can be detected (NHP, single i.v.): 3 µg/kg | dose level at which a significant increase in % Ki-67 in NK cells can be detected (NHP, single i.v.): 1 µg/kg | first detectable increase in % Ki-67 in CD8 Tem, Tcm and Tscm (NHP, single i.v.): 2 days | lowest dose level yielding a significant increase in NK cells (NHP, single i.v.): 10 µg/kg | maximum of % Ki-67 in CD8 Tem, Tcm and Tscm (NHP, single i.v.): 5 days | return of % Ki-67 in CD8 Tem, Tcm and Tscm to baseline (NHP, single i.v.): 10 to 14 days | time Ki-67 expression in NK cells can be sustained (NHP, single i.v.): up to 14 days | time increase in total CD8 T cells is sustained (NHP, single i.v.): over seven | time of maximum NK cell numbers after dosing (NHP, single i.v.): five | increase in CD8 T cell numbers (cyno, single i.v. 0.1 mg/kg): 7-10 X | increase in CD8 Tcm numbers (cyno, single i.v. 0.1 mg/kg): 27-30 X | increase in CD8 Tem numbers (cyno, single i.v. 0.1 mg/kg): 21-33 X | increase in NK cells (cyno, single i.v. 0.1 mg/kg): 9-10 X | time increase in CD8 T cell numbers was sustained [1]: at least 10 days | time increase in NK cell numbers was sustained [1]: at least 14 days

Source: patent US20240424115A1, “LONG-ACTING INTERLEUKIN-15 RECEPTOR AGONISTS AND RELATED IMMUNOTHERAPEUTIC COMPOSITIONS AND METHODS” (Nektar Therapeutics, priority 2017, published 2024)
